Test results taken from the NIST ThermoML archive (doi:10.1021/acs.jced.7b00201).
Numbers after ± are expanded uncertainties.

Test: xn = mol fraction of the nth substance listed
Details: 100 kPa, Liquid; for viscosity: Falling or rolling sphere viscometry; for mass density: Vibrating tube method

OCC1CC1 [cyclopropylmethanol] + CCCCC1CCCCC1
Details	mass density [kg/m3]	viscosity [mPa·s]
293.15 K, x1 = 0.1039	803.82 ± 1	1.319 ± 0.028
293.15 K, x1 = 0.2031	809.39 ± 1	1.383 ± 0.029
293.15 K, x1 = 0.3022	815.9 ± 1	1.475 ± 0.031
293.15 K, x1 = 0.3997	823.34 ± 1	1.602 ± 0.034
293.15 K, x1 = 0.4993	832.12 ± 1	1.778 ± 0.038
293.15 K, x1 = 0.5994	842.55 ± 1	2.006 ± 0.043
293.15 K, x1 = 0.7	855.1 ± 1	2.299 ± 0.049
293.15 K, x1 = 0.797	869.68 ± 1	2.67 ± 0.057
293.15 K, x1 = 0.9004	889.05 ± 1	3.23 ± 0.069
293.15 K, x1 = 1	912.99 ± 1	4.029 ± 0.086
298.15 K, x1 = 0.1039	800.02 ± 1	1.212 ± 0.026
298.15 K, x1 = 0.2031	805.52 ± 1	1.265 ± 0.027
298.15 K, x1 = 0.3022	812 ± 1	1.343 ± 0.029
298.15 K, x1 = 0.3997	819.39 ± 1	1.451 ± 0.031
298.15 K, x1 = 0.4993	828.15 ± 1	1.601 ± 0.034
298.15 K, x1 = 0.5994	838.56 ± 1	1.79 ± 0.038
298.15 K, x1 = 0.7	851.09 ± 1	2.038 ± 0.044
298.15 K, x1 = 0.797	865.66 ± 1	2.355 ± 0.05
298.15 K, x1 = 0.9004	885.02 ± 1	2.821 ± 0.06
298.15 K, x1 = 1	908.94 ± 1	3.485 ± 0.075
303.15 K, x1 = 0.1039	796.16 ± 1	1.117 ± 0.024
303.15 K, x1 = 0.2031	801.61 ± 1	1.162 ± 0.025
303.15 K, x1 = 0.3022	808.04 ± 1	1.228 ± 0.026
303.15 K, x1 = 0.3997	815.4 ± 1	1.319 ± 0.028
303.15 K, x1 = 0.4993	824.14 ± 1	1.448 ± 0.031
303.15 K, x1 = 0.5994	834.52 ± 1	1.607 ± 0.034
303.15 K, x1 = 0.7	847.04 ± 1	1.817 ± 0.039
303.15 K, x1 = 0.797	861.6 ± 1	2.084 ± 0.045
303.15 K, x1 = 0.9004	880.95 ± 1	2.48 ± 0.053
303.15 K, x1 = 1	904.85 ± 1	3.037 ± 0.065
308.15 K, x1 = 0.1039	792.28 ± 1	1.034 ± 0.022
308.15 K, x1 = 0.2031	797.68 ± 1	1.072 ± 0.023
308.15 K, x1 = 0.3022	804.06 ± 1	1.128 ± 0.024
308.15 K, x1 = 0.3997	811.39 ± 1	1.205 ± 0.026
308.15 K, x1 = 0.4993	820.09 ± 1	1.315 ± 0.028
308.15 K, x1 = 0.5994	830.45 ± 1	1.45 ± 0.031
308.15 K, x1 = 0.7	842.95 ± 1	1.628 ± 0.035
308.15 K, x1 = 0.797	857.5 ± 1	1.855 ± 0.04
308.15 K, x1 = 0.9004	876.84 ± 1	2.192 ± 0.047
308.15 K, x1 = 1	900.74 ± 1	2.661 ± 0.057
313.15 K, x1 = 0.1039	788.38 ± 1	0.96 ± 0.02
313.15 K, x1 = 0.2031	793.72 ± 1	0.984 ± 0.021
313.15 K, x1 = 0.3022	800.06 ± 1	1.04 ± 0.022
313.15 K, x1 = 0.3997	807.34 ± 1	1.106 ± 0.024
313.15 K, x1 = 0.4993	816.02 ± 1	1.198 ± 0.026
313.15 K, x1 = 0.5994	826.34 ± 1	1.314 ± 0.028
313.15 K, x1 = 0.7	838.82 ± 1	1.466 ± 0.031
313.15 K, x1 = 0.797	853.35 ± 1	1.659 ± 0.036
313.15 K, x1 = 0.9004	872.69 ± 1	1.947 ± 0.042
313.15 K, x1 = 1	896.58 ± 1	2.344 ± 0.05
318.15 K, x1 = 0.1039	784.47 ± 1	0.895 ± 0.019
318.15 K, x1 = 0.2031	789.74 ± 1	0.919 ± 0.02
318.15 K, x1 = 0.3022	796.03 ± 1	0.963 ± 0.021
318.15 K, x1 = 0.3997	803.27 ± 1	1.019 ± 0.022
318.15 K, x1 = 0.4993	811.9 ± 1	1.098 ± 0.023
318.15 K, x1 = 0.5994	822.19 ± 1	1.197 ± 0.026
318.15 K, x1 = 0.7	834.65 ± 1	1.327 ± 0.028
318.15 K, x1 = 0.797	849.17 ± 1	1.491 ± 0.032
318.15 K, x1 = 0.9004	868.5 ± 1	1.735 ± 0.037
318.15 K, x1 = 1	892.38 ± 1	2.074 ± 0.044
323.15 K, x1 = 0.1039	780.53 ± 1	0.837 ± 0.018
323.15 K, x1 = 0.2031	785.74 ± 1	0.861 ± 0.018
323.15 K, x1 = 0.3022	791.97 ± 1	0.894 ± 0.019
323.15 K, x1 = 0.3997	799.16 ± 1	0.941 ± 0.02
323.15 K, x1 = 0.4993	807.75 ± 1	1.01 ± 0.022
323.15 K, x1 = 0.5994	818.01 ± 1	1.094 ± 0.023
323.15 K, x1 = 0.7	830.44 ± 1	1.205 ± 0.026
323.15 K, x1 = 0.797	844.94 ± 1	1.345 ± 0.029
323.15 K, x1 = 0.9004	864.26 ± 1	1.555 ± 0.033
323.15 K, x1 = 1	888.13 ± 1	1.843 ± 0.04
328.15 K, x1 = 0.1039	776.57 ± 1	0.784 ± 0.017
328.15 K, x1 = 0.2031	781.71 ± 1	0.808 ± 0.017
328.15 K, x1 = 0.3022	787.87 ± 1	0.832 ± 0.018
328.15 K, x1 = 0.3997	795.01 ± 1	0.873 ± 0.019
328.15 K, x1 = 0.4993	803.56 ± 1	0.931 ± 0.02
328.15 K, x1 = 0.5994	813.78 ± 1	1.003 ± 0.021
328.15 K, x1 = 0.7	826.18 ± 1	1.098 ± 0.023
328.15 K, x1 = 0.797	840.66 ± 1	1.22 ± 0.026
328.15 K, x1 = 0.9004	859.97 ± 1	1.399 ± 0.03
328.15 K, x1 = 1	883.84 ± 1	1.646 ± 0.035
333.15 K, x1 = 0.1039	772.6 ± 1	0.736 ± 0.016
333.15 K, x1 = 0.2031	777.65 ± 1	0.758 ± 0.016
333.15 K, x1 = 0.3022	783.75 ± 1	0.777 ± 0.017
333.15 K, x1 = 0.3997	790.83 ± 1	0.812 ± 0.017
333.15 K, x1 = 0.4993	799.33 ± 1	0.862 ± 0.018
333.15 K, x1 = 0.5994	809.5 ± 1	0.923 ± 0.02
333.15 K, x1 = 0.7	821.87 ± 1	1.005 ± 0.022
333.15 K, x1 = 0.797	836.33 ± 1	1.109 ± 0.024
333.15 K, x1 = 0.9004	855.62 ± 1	1.264 ± 0.027
333.15 K, x1 = 1	879.49 ± 1	1.476 ± 0.032
338.15 K, x1 = 0.1039	768.6 ± 1	0.697 ± 0.015
338.15 K, x1 = 0.2031	773.56 ± 1	0.718 ± 0.015
338.15 K, x1 = 0.3022	779.59 ± 1	0.733 ± 0.016
338.15 K, x1 = 0.3997	786.61 ± 1	0.767 ± 0.016
338.15 K, x1 = 0.4993	795.05 ± 1	0.801 ± 0.017
338.15 K, x1 = 0.5994	805.18 ± 1	0.853 ± 0.018
338.15 K, x1 = 0.7	817.51 ± 1	0.923 ± 0.02
338.15 K, x1 = 0.797	831.94 ± 1	1.012 ± 0.022
338.15 K, x1 = 0.9004	851.21 ± 1	1.146 ± 0.025
338.15 K, x1 = 1	875.07 ± 1	1.328 ± 0.028
343.15 K, x1 = 0.1039	764.58 ± 1	0.656 ± 0.014
343.15 K, x1 = 0.2031	769.4 ± 1	0.668 ± 0.014
343.15 K, x1 = 0.3022	775.39 ± 1	0.684 ± 0.015
343.15 K, x1 = 0.3997	782.35 ± 1	0.709 ± 0.015
343.15 K, x1 = 0.4993	790.73 ± 1	0.746 ± 0.016
343.15 K, x1 = 0.5994	800.8 ± 1	0.79 ± 0.017
343.15 K, x1 = 0.7	813.09 ± 1	0.85 ± 0.018
343.15 K, x1 = 0.797	827.49 ± 1	0.928 ± 0.02
343.15 K, x1 = 0.9004	846.74 ± 1	1.043 ± 0.022
343.15 K, x1 = 1	870.62 ± 1	1.201 ± 0.026
